Measured values: ChEMBL document CHEMBL4130490, “Discovery of Benzo[g]quinazolin benzenesulfonamide derivatives as dual EGFR/HER2 inhibitors” (Eur J Med Chem, 2017)

What was measured:
A549 [1] = test: Cytotoxicity against human A549 cells after 24 hrs by MTT assay; format: functional, cell-based; conditions: A549, 24 h
[2] = target: Epidermal growth factor receptor (Homo sapiens, UniProt P00533); test: Inhibition of recombinant human GST-tagged EGFR cytoplasmic domain (668 to 1210 residues) expressed in baculovirus virus expression system after 1 hr by ELISA
Epidermal growth factor receptor, sequence (P00533 whole entry, the tested form may be a part): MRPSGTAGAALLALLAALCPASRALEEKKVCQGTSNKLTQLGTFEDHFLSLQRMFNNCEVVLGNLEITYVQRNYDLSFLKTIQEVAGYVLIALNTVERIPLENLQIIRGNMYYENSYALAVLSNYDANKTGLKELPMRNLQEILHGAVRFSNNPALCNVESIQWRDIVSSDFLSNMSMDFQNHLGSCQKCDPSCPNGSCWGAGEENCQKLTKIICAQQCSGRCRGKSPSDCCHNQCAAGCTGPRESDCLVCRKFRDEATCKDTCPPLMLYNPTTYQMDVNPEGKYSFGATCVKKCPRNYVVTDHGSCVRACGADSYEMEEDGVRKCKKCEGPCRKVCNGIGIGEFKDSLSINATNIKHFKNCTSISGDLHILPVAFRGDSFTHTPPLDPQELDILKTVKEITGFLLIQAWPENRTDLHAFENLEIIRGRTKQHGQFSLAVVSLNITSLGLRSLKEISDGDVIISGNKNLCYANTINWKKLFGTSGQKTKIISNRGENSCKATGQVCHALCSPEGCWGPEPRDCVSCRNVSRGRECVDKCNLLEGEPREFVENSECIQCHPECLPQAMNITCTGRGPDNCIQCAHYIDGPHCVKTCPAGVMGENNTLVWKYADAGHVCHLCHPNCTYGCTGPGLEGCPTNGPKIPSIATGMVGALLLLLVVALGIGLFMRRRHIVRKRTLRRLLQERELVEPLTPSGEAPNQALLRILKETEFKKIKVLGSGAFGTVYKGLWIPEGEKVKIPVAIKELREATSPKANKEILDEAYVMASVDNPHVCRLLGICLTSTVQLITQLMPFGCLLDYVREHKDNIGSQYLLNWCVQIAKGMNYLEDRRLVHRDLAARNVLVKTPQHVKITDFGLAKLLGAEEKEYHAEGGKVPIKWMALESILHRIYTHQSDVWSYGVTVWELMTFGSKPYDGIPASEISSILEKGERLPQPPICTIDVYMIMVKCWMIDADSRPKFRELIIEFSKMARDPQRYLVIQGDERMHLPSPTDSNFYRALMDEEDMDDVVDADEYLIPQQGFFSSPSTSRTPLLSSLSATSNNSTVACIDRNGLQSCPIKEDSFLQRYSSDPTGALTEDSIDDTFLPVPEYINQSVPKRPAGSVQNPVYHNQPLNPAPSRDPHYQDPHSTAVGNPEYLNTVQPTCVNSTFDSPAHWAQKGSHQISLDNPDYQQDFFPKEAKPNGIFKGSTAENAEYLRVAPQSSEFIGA

[3] = target: Receptor tyrosine-protein kinase erbB-2 (Homo sapiens, UniProt P04626); test: Inhibition of recombinant human His-tagged HER2 cytoplasmic domain (676 to 1255 residues) expressed in baculovirus virus expression system after 1 hr by ELISA
Receptor tyrosine-protein kinase erbB-2, sequence (P04626 whole entry, the tested form may be a part): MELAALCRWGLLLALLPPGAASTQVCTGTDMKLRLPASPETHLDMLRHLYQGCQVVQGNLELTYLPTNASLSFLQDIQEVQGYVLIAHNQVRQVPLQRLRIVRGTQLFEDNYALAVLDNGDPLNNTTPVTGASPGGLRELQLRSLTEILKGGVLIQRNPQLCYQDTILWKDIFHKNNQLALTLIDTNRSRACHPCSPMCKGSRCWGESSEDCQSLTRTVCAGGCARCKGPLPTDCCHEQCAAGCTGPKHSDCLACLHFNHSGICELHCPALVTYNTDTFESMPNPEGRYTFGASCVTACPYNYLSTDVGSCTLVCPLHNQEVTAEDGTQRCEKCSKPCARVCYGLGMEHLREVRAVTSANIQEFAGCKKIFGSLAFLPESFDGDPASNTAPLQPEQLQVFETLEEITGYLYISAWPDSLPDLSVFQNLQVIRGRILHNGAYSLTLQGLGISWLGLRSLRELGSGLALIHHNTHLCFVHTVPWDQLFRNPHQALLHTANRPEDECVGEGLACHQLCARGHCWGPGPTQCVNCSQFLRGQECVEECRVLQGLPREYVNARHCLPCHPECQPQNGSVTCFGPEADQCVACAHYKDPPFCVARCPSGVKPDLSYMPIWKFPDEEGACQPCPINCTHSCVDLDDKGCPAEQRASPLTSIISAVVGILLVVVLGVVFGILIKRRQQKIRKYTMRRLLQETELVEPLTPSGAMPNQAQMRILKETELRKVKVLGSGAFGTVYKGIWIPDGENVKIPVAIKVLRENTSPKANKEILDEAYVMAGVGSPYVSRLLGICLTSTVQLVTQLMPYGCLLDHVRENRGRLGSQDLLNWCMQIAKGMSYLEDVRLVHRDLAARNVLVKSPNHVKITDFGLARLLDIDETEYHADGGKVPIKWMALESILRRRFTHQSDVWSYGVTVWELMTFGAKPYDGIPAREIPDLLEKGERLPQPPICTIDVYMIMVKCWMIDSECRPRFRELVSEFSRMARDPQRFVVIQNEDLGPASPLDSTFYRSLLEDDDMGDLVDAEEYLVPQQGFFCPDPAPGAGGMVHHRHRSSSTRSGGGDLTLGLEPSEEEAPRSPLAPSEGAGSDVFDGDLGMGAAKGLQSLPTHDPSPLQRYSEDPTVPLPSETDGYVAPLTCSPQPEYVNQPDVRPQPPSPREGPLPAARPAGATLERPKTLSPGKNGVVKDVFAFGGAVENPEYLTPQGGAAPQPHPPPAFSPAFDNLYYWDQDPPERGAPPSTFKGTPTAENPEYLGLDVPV

A549 [4] = test: Induction of apoptosis in human A549 cells assessed as increase in active caspase-3 level by immunoassay relative to control; format: functional

| SMILES | IC50 (A549 [1]) | IC50 [2] | IC50 [3] | fold change (FC) (A549 [4]) |
| --- | --- | --- | --- | --- |
| NS(=O)(=O)c1ccc(-n2c(SCC(=O)Nc3cccnc3Cl)nc3cc4ccccc4cc3c2=O)cc1 | 670 nM |  |  |  |
| NS(=O)(=O)c1ccc(-n2c(SCC(=O)Nc3ccc([N+](=O)[O-])cc3[N+](=O)[O-])nc3cc4ccccc4cc3c2=O)cc1 | 280 nM | 60 nM | 300 nM | 9.35 |
| NS(=O)(=O)c1ccc(-n2c(SCC(=O)Nc3ccc(Cl)cn3)nc3cc4ccccc4cc3c2=O)cc1 | 1020 nM |  |  |  |
| NS(=O)(=O)c1ccc(-n2c(SCC(=O)Nc3ccc(Br)cc3)nc3cc4ccccc4cc3c2=O)cc1 | 8700 nM |  |  |  |
| NS(=O)(=O)c1ccc(-n2c(SCC(=O)Nc3cnc4ccccc4c3)nc3cc4ccccc4cc3c2=O)cc1 | 120 nM | 110 nM | 390 nM | 8.49 |
| NS(=O)(=O)c1ccc(-n2c(SCC(=O)Nc3ccccn3)nc3cc4ccccc4cc3c2=O)cc1 | 3520 nM |  |  |  |
| NS(=O)(=O)c1ccc(-n2c(SCC(=O)Nc3ccncc3)nc3cc4ccccc4cc3c2=O)cc1 | 500 nM |  |  |  |
| NS(=O)(=O)c1ccc(-n2c(SCC(=O)Nc3ccc(Br)cc3Br)nc3cc4ccccc4cc3c2=O)cc1 | 1500 nM |  |  |  |
| NS(=O)(=O)c1ccc(-n2c(SCC(=O)Nc3cc(Cl)c(Cl)cc3Cl)nc3cc4ccccc4cc3c2=O)cc1 | 290 nM |  | 760 nM | 6.28 |
| Cc1cccc([N+](=O)[O-])c1NC(=O)CSc1nc2cc3ccccc3cc2c(=O)n1-c1ccc(S(N)(=O)=O)cc1 | 1480 nM |  |  |  |
| NS(=O)(=O)c1ccc(-n2c(SCC(=O)Nc3cccnc3)nc3cc4ccccc4cc3c2=O)cc1 | 490 nM |  |  |  |
| NS(=O)(=O)c1ccc(-n2c(SCC(=O)NCc3ccc4c(c3)OCO4)nc3cc4ccccc4cc3c2=O)cc1 | 1360 nM |  |  |  |
| NS(=O)(=O)c1ccc(-n2c(SCC(=O)Nc3c(Cl)cc(Cl)cc3Cl)nc3cc4ccccc4cc3c2=O)cc1 | 1070 nM |  |  |  |
| NS(=O)(=O)c1ccc(-n2c(SCC(=O)Nc3ccc(I)cc3)nc3cc4ccccc4cc3c2=O)cc1 | 2530 nM |  |  |  |
| NS(=O)(=O)c1ccc(-n2c(SCC(=O)Nc3ccccc3Cl)nc3cc4ccccc4cc3c2=O)cc1 | 1160 nM |  |  |  |
